Reference: publication PMC5666424, “Marine-Derived 2-Aminoimidazolone Alkaloids. Leucettamine B-Related Polyandrocarpamines Inhibit Mammalian and Protozoan DYRK & CLK Kinases” (Marine Drugs, 2017)

Legend:
Test in all cases: KinomeScan
Type in all cases: binding
Conditions in all cases: 1 μM
GCN2(Kin.Dom.2,S808G) = molecular target: T1, GCN2(Kin.Dom.2,S808G) (Homo sapiens, UniProt Q9P2K8, S808G)
T1 construct: GCN2(Kin.Dom.2,S808G); purchased DiscoverX (KINOMEscan)

TAOK2 = molecular target: T2, TAOK2 (Homo sapiens, UniProt Q9UL54)
T2 construct: purchased DiscoverX (KINOMEscan)

EPHB1 = molecular target: T3, EPHB1 (Homo sapiens, UniProt P54762)
T3 construct: purchased DiscoverX (KINOMEscan)

BRK = molecular target: T4, BRK (Homo sapiens, UniProt Q13882)
T4 construct: purchased DiscoverX (KINOMEscan)

MEK4 = molecular target: T5, MEK4 (Homo sapiens, UniProt P45985)
T5 construct: purchased DiscoverX (KINOMEscan)

CDC2L5 = molecular target: T6, CDC2L5 (Homo sapiens, UniProt Q14004)
T6 construct: purchased DiscoverX (KINOMEscan)

MET(Y1235D) = molecular target: T7, MET(Y1235D) (Homo sapiens, UniProt P08581, Y1235D)
T7 construct: purchased DiscoverX (KINOMEscan)

ACVR2B = molecular target: T8, ACVR2B (Homo sapiens, UniProt Q13705)
T8 construct: purchased DiscoverX (KINOMEscan)

MYLK4 = molecular target: T9, MYLK4 (Homo sapiens, UniProt Q86YV6)
T9 construct: purchased DiscoverX (KINOMEscan)
T9 sequence (Q86YV6 whole entry): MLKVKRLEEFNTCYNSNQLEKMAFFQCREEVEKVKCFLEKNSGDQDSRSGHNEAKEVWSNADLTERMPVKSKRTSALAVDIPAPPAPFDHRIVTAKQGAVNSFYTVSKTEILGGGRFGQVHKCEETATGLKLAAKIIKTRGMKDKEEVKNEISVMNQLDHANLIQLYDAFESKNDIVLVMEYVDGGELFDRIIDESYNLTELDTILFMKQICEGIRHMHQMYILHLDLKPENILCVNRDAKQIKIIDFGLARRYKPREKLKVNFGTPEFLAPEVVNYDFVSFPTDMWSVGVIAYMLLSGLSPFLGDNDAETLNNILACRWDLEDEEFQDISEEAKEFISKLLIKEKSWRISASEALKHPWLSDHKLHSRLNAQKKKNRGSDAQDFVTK

MLK2 = molecular target: T10, MLK2 (Homo sapiens, UniProt Q02779)
T10 construct: purchased DiscoverX (KINOMEscan)

ADCK4 = molecular target: T11, ADCK4 (Homo sapiens, UniProt Q96D53)
T11 construct: purchased DiscoverX (KINOMEscan)

LTK = molecular target: T12, LTK (Homo sapiens, UniProt P29376)
T12 construct: purchased DiscoverX (KINOMEscan)

FLT3(R834Q) = molecular target: T13, FLT3(R834Q) (Homo sapiens, UniProt P36888, R834Q)
T13 construct: purchased DiscoverX (KINOMEscan)

TSSK1B = molecular target: T14, TSSK1B (Homo sapiens, UniProt Q9BXA7)
T14 construct: purchased DiscoverX (KINOMEscan)

MYO3A = molecular target: T15, MYO3A (Homo sapiens, UniProt Q8NEV4)
T15 construct: purchased DiscoverX (KINOMEscan)

CDC2L2 = molecular target: T16, CDC2L2 (Homo sapiens, UniProt Q9UQ88)
T16 construct: purchased DiscoverX (KINOMEscan)

MST3 = molecular target: T17, MST3 (Homo sapiens, UniProt Q9Y6E0)
T17 construct: purchased DiscoverX (KINOMEscan)
T17 sequence (Q9Y6E0 whole entry): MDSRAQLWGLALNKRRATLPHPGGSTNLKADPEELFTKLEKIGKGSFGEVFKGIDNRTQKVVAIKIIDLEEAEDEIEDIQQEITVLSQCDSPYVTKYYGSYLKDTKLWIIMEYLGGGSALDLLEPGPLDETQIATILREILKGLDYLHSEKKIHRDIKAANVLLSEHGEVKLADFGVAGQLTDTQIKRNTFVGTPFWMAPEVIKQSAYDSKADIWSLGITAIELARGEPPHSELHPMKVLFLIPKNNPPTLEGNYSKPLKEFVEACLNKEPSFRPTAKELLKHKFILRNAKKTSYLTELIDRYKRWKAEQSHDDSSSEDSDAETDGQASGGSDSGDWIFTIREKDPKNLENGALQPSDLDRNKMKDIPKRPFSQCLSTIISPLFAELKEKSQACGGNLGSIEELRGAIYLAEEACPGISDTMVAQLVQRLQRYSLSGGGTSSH

MAP4K2 = molecular target: T18, MAP4K2 (Homo sapiens, UniProt Q12851)
T18 construct: purchased DiscoverX (KINOMEscan)

[1] = molecular target: T19, ABL1(Y253F)-phosphorylated (Homo sapiens, UniProt P00519, Y253F)
T19 construct: purchased DiscoverX (KINOMEscan)

YANK2 = molecular target: T20, YANK2 (Homo sapiens, UniProt Q9NY57)
T20 construct: purchased DiscoverX (KINOMEscan)

ARK5 = molecular target: T21, ARK5 (Homo sapiens, UniProt O60285)
T21 construct: purchased DiscoverX (KINOMEscan)

SRPK2 = molecular target: T22, SRPK2 (Homo sapiens, UniProt P78362)
T22 construct: purchased DiscoverX (KINOMEscan)

EPHA6 = molecular target: T23, EPHA6 (Homo sapiens, UniProt Q9UF33)
T23 construct: purchased DiscoverX (KINOMEscan)

MYLK = molecular target: T24, MYLK (Homo sapiens, UniProt Q15746)
T24 construct: purchased DiscoverX (KINOMEscan)

DYRK1B = DYRK1B (Homo sapiens, UniProt Q9Y463)
CSNK2A2 = molecular target: T25, CSNK2A2 (Homo sapiens, UniProt P19784)
T25 construct: purchased DiscoverX (KINOMEscan)
T25 sequence (P19784 whole entry): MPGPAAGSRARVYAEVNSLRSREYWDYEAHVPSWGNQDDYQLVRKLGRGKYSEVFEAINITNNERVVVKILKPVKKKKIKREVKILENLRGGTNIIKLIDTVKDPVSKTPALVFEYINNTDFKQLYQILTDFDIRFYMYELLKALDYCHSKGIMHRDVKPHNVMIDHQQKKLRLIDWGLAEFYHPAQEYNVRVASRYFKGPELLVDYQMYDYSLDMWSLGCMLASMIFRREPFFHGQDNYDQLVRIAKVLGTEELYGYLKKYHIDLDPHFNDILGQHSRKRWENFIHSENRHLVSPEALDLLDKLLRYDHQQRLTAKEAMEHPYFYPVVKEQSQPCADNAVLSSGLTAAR

CSF1R = molecular target: T26, CSF1R (Homo sapiens, UniProt P07333)
T26 construct: purchased DiscoverX (KINOMEscan)

MST4 = molecular target: T27, MST4 (Homo sapiens, UniProt Q9P289)
T27 construct: purchased DiscoverX (KINOMEscan)
T27 sequence (Q9P289 whole entry): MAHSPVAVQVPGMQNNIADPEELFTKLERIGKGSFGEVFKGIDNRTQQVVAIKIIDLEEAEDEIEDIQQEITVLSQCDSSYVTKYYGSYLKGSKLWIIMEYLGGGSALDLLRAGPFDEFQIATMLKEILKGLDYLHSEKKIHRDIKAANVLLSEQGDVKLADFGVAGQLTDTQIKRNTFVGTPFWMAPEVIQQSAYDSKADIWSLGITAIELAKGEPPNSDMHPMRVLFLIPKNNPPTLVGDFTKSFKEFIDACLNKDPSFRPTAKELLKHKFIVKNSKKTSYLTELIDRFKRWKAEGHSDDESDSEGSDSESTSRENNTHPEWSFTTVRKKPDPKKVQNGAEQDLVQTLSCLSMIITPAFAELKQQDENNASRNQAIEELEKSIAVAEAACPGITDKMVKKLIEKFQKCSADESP

CSNK1A1L = molecular target: T28, CSNK1A1L (Homo sapiens, UniProt Q8N752)
T28 construct: purchased DiscoverX (KINOMEscan)

KIT = molecular target: T29, KIT (Homo sapiens, UniProt P10721)
T29 construct: purchased DiscoverX (KINOMEscan)

TIE2 = molecular target: T30, TIE2 (Homo sapiens, UniProt Q02763)
T30 construct: purchased DiscoverX (KINOMEscan)
T30 sequence (Q02763 23-1124): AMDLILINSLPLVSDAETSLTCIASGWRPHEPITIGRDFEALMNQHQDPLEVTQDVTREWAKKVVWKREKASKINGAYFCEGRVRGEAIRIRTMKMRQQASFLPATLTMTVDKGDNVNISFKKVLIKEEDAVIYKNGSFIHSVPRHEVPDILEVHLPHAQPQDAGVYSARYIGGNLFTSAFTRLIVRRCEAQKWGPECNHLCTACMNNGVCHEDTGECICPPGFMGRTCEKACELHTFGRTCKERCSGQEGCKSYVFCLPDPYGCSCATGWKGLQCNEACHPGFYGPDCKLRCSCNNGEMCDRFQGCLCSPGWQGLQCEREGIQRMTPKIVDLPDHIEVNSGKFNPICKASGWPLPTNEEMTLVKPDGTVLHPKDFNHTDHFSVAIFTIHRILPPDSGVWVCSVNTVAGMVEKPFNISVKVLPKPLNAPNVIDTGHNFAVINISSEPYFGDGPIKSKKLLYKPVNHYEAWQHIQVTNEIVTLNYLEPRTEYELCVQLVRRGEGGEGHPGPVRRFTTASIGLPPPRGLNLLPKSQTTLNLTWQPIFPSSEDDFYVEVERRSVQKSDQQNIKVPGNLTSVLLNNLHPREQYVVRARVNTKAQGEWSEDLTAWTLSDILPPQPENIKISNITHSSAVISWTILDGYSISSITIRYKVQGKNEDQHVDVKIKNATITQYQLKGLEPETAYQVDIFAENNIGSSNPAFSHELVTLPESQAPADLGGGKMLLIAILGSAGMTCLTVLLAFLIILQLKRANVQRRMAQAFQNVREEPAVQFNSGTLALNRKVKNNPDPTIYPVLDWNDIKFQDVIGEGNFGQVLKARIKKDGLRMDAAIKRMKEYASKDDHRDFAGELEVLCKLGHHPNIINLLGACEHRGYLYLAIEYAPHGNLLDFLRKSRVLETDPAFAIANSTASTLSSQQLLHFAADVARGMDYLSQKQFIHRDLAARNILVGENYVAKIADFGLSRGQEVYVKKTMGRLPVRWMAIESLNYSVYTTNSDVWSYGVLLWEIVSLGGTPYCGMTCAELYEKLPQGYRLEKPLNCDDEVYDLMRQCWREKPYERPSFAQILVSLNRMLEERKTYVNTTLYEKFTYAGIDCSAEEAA

CAMK2D = molecular target: T31, CAMK2D (Homo sapiens, UniProt Q13557)
T31 construct: purchased DiscoverX (KINOMEscan)
T31 sequence (Q13557 whole entry): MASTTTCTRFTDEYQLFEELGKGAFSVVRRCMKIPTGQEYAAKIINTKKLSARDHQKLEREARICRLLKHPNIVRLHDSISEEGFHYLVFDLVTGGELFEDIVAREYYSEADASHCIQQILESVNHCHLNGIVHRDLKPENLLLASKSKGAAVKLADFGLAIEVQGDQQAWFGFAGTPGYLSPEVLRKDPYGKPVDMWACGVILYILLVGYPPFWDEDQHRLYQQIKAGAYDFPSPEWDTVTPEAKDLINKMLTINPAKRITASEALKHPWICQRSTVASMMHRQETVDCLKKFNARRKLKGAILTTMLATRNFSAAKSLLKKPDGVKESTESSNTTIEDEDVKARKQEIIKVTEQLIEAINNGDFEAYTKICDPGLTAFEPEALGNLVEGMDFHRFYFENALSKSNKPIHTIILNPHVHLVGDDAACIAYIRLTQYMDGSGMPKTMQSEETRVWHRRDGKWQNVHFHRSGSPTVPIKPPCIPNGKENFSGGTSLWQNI

[2] = molecular target: T32, JAK1(JH1domain-catalytic) (Homo sapiens, UniProt P23458)
T32 construct: JAK1(JH1domain-catalytic); purchased DiscoverX (KINOMEscan)

MET = molecular target: T33, MET (Homo sapiens, UniProt P08581)
T33 construct: purchased DiscoverX (KINOMEscan)
T33 sequence (P08581 25-1390): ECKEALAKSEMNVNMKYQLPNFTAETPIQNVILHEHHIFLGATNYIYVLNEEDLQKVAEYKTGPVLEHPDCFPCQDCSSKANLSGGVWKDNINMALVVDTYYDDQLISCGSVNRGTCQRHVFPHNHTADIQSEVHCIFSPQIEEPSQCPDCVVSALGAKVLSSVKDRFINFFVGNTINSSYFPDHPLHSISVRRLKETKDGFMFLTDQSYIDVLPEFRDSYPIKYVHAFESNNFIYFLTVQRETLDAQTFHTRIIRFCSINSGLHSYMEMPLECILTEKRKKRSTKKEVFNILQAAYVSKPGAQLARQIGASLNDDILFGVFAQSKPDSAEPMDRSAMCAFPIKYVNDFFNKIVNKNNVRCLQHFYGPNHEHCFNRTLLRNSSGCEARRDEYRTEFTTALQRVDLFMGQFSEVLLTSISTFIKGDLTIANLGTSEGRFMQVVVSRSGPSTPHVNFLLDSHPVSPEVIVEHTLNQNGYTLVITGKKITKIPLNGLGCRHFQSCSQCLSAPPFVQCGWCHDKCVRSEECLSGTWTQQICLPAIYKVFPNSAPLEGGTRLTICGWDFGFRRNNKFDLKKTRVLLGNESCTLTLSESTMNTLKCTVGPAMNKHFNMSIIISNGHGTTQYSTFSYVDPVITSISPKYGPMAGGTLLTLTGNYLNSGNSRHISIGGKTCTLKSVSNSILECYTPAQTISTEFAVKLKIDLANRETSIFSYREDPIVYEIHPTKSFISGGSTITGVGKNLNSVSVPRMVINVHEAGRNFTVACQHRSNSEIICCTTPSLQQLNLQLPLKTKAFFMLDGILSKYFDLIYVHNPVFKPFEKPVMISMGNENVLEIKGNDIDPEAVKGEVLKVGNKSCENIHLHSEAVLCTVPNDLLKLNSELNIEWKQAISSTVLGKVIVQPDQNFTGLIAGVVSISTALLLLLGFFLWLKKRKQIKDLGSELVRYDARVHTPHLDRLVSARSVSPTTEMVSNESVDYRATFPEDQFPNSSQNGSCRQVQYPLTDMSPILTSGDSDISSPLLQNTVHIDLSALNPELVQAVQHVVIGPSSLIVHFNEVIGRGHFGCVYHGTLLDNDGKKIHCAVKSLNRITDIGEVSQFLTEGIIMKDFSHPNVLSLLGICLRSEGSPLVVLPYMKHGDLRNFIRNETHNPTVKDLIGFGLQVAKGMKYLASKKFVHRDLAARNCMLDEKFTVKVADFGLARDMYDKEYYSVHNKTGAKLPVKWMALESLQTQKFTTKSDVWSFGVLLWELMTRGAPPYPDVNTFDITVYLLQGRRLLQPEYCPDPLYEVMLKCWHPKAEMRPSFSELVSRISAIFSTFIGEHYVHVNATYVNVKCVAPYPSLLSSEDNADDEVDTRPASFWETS

[3] = molecular target: T34, ABL1(H396P)-nonphosphorylated (Homo sapiens, UniProt P00519, H396P)
T34 construct: purchased DiscoverX (KINOMEscan)

EPHA1 = molecular target: T35, EPHA1 (Homo sapiens, UniProt P21709)
T35 construct: purchased DiscoverX (KINOMEscan)

T1 sequence (Q9P2K8 590-1001 S808G limits assumed): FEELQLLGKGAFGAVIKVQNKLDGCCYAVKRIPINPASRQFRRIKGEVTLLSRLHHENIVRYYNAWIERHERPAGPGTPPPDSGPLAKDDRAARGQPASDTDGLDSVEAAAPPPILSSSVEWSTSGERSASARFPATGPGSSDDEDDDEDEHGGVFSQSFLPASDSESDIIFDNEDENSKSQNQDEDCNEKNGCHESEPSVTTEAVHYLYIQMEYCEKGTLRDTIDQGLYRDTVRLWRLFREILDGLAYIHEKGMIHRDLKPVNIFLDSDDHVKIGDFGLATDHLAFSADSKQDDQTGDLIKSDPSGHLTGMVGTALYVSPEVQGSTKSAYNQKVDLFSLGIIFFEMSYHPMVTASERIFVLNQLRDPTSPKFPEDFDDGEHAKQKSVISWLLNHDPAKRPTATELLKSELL

COc1cc(/C=C2\N=C(N)NC2=O)ccc1O [Polyandrocarpamine A]
Score (GCN2(Kin.Dom.2,S808G)): 90 | Score (TAOK2): 100 | Score (EPHB1): 89 | Score (BRK): 100 | Score (MEK4): 100 | Score (CDC2L5): 100 | Score (MET(Y1235D)): 100 | Score (ACVR2B): 99 | Score (MYLK4): 96 | Score (MLK2): 100 | Score (ADCK4): 98 | Score (LTK): 100 | Score (FLT3(R834Q)): 100 | Score (TSSK1B): 100 | Score (MYO3A): 100 | Score (CDC2L2): 100 | Score (MST3): 100 | Score (MAP4K2): 97 | Score [1]: 100 | Score (YANK2): 94 | Score (ARK5): 71 | Score (SRPK2): 100 | Score (EPHA6): 100 | Score (MYLK): 98 | Score (DYRK1B): 25 | Score (CSNK2A2): 26 | Score (CSF1R): 87 | Score (MST4): 100 | Score (CSNK1A1L): 100 | Score (KIT): 87 | Score (TIE2): 98 | Score (CAMK2D): 100 | Score [2]: 72 | Score (MET): 100 | Score [3]: 95 | Score (EPHA1): 100
